Values of other authors in US20040067252A1, “Novel modified release formulation” (priority 2001, published 2004).
≈ marks a conversion by molar mass, not a printed value.

Conditions: at 25° C.

Cn1c(=O)c2[nH]cnc2n(C)c1=O [theophylline]
water solubility: 8300 µg/mL (≈ 46.1 mM)
